This passage reports IC50 results from US20240317735A1, “HYDROISOQUINOLINE OR HYDRONAPHTHYRIDINE COMPOUNDS FOR THE TREATMENT OF AUTOIMMUNE DISEASE” (Hoffmann-La Roche Inc., priority 2020, published 2024).

The target in this assay is T1, human TLR7 (Homo sapiens, UniProt Q9NYK1).
T1 construct: host or cells: HEK293 (HEK-Blue hTLR7)
T1 sequence (Q9NYK1 27-1049): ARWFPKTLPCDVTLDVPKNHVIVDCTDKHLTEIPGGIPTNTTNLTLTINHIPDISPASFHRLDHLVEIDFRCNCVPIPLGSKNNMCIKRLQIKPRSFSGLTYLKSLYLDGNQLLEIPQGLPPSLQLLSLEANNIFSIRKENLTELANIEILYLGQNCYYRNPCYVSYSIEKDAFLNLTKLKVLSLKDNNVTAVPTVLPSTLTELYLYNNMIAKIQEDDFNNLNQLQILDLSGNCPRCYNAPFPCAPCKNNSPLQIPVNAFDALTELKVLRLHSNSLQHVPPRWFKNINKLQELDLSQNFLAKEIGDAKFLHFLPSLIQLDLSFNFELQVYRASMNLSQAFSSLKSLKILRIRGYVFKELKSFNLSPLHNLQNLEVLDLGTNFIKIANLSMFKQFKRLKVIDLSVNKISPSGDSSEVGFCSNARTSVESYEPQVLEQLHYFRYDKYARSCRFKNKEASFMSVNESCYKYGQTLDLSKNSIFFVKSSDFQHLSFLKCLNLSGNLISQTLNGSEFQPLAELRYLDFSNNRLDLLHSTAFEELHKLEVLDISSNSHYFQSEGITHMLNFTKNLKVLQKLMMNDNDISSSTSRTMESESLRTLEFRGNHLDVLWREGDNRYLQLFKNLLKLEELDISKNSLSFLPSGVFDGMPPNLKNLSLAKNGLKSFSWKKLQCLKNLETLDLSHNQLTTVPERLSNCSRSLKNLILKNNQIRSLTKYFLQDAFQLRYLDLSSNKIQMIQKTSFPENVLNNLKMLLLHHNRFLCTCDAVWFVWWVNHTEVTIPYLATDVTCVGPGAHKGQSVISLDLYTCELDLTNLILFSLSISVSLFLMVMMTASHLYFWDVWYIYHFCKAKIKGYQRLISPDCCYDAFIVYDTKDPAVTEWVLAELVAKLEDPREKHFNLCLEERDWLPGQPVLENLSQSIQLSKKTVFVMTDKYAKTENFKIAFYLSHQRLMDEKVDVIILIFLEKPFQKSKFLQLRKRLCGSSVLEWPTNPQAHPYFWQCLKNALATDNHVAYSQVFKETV
Nature of the assay: HEK293-Blue-hTLR-7 cells assay (SEAP reporter, R848 stimulation). It counts as cell-based. The note with it: HEK293-Blue-hTLR7 cells, R848, 20 hrs; read-out: HEK/hTLR7 IC50. The procedure: The following tests were carried out in order to determine the activity of the compounds of formula (I) and (Ia) in HEK293-Blue-hTLR-7/8/9 cells assay.
A stable HEK293-Blue-hTLR-7 cell line was purchased from InvivoGen (Cat. #: hkb-htlr7, San Diego, California, USA). These cells were originally designed for studying the stimulation of human TLR7 by monitoring the activation of NF-κB. A SEAP (secreted embryonic alkaline phosphatase) reporter gene was placed under the control of the IFN-β minimal promoter fused to five NF-κB and AP-1-binding sites. The SEAP was induced by activating NF-κB and AP-1 via stimulating HEK-Blue hTLR7 cells with TLR7 ligands. Therefore the reporter expression w % as declined by TLR7 antagonist under the stimulation of a ligand, such as R848 (Resiquimod), for incubation of 20 hrs. The cell culture supernatant SEAP reporter activity was determined using QUANTI-Blue™ kit (Cat. #: rep-qb1, Invivogen, San Diego, Ca, USA) at a wavelength of 640 nm, a detection medium that turns purple or blue in the presence of alkaline phosphatase.
HEK293-Blue-hTLR7 cells were incubated at a density of 250,000˜450,000 cells/mL in a volume of 170 μL in a 96-well plate in Dulbecco's Modified Eagle's medium (DMEM) containing 4.5 g/L glucose, 50 U/mL penicillin, […], […] Normocin, 2 mM L-glutamine, 10% (v/v) heat-inactivated fetal bovine serum with addition of 20 μL test compound in a serial dilution in the presence of final DMSO at 1% and 10 μL of 20 uM R848 in above DMEM, perform incubation under 37° C. in a C02 incubator for 20 hrs. Then 20 μL of the supernatant from each well was incubated with 180 μL Quanti-blue substrate solution at 37° C. for 2 hrs and the absorbance was read at 620˜655 nm using a spectrophotometer. The signaling pathway that TLR7 activation leads to downstream NF-κB activation has been widely accepted, and therefore similar reporter assay was modified for evaluating TLR7 antagonist.
Turning to `C[C@H]1CN(c2ccnc3c2cnn3C)Cc2ccc(OC[C@@H]3CNCCN3)cc21` [Example 19, (4R)-4-methyl-2-(1-methylpyrazolo[3,4-b]pyridin-4-yl)-6-[[(2S)-piperazin-2-yl]methoxy]-3,4-dihydro-1H-isoquinoline], the IC50 was determined as 8 nM.

For `CO[C@@H]1CN(c2ccc3c(c2)[C@@H](C)CN(c2ccnc4c2cnn4C)C3)C[C@H]1N` [Example 20, (3R,4R)-4-methoxy-1-[(4R)-4-methyl-2-(1-methylpyrazolo[3,4-b]pyridin-4-yl)-3,4-dihydro-1H-isoquinolin-6-yl]pyrrolidin-3-amine], the IC50 worked out at 3 nM.

`C[C@H]1CN(c2ccnc3c2cnn3C)Cc2ccc(N3CC4(CNCCO4)C3)cc21` [Example 21, 2-[(4R)-4-methyl-2-(1-methylpyrazolo[3,4-b]pyridin-4-yl)-3,4-dihydro-1H-isoquinolin-6-yl]-5-oxa-2,8-diazaspiro[3.5]nonane]: the IC50 turned out to be 7 nM.

Consider `CCn1ncc2c(N3Cc4ccc(N5CCNCC5)cc4[C@@H](C)C3)ccnc21` [Example 22, (4R)-2-(1-ethylpyrazolo[3,4-b]pyridin-4-yl)-4-methyl-6-piperazin-1-yl-3,4-dihydro-1H-isoquinoline], for which the IC50 was found to be 10 nM.

As for `CO[C@@H]1CN(c2ccc3c(c2)[C@@H](C)CN(c2cc(C)nc4c2cnn4C)C3)C[C@H]1N` [Example 23, (3R,4R)-4-methoxy-1-[(4R)-2-(1,6-dimethylpyrazolo[3,4-b]pyridin-4-yl)-4-methyl-3,4-dihydro-1H-isoquinolin-6-yl]pyrrolidin-3-amine], the IC50 was 5 nM.

Turning to `C[C@H]1CN(c2ccnc3c2cnn3C)Cc2ccc(N3C[C@H]4CNCCN4C3=O)cc21` [Example 24, (8aR)-2-[(4R)-4-methyl-2-(1-methylpyrazolo[3,4-b]pyridin-4-yl)-3,4-dihydro-1H-isoquinolin-6-yl]-1,5,6,7,8,8a-hexahydroimidazo[1,5-a]pyrazin-3-one], the IC50 is 10 nM.

With `C[C@H]1CN(c2ccnc3c2cnn3C)Cc2ccc(N3C[C@@H]4CNCCN4C3=O)cc21` [Example 25, (8aS)-2-[(4R)-4-methyl-2-(1-methylpyrazolo[3,4-b]pyridin-4-yl)-3,4-dihydro-1H-isoquinolin-6-yl]-1,5,6,7,8,8a-hexahydroimidazo[1,5-a]pyrazin-3-one], the IC50 was 15 nM.

For the compound `C[C@H]1CN(c2ccnc3c2cnn3C)Cc2ccc(N3CC4(CCNCC4)OC3=O)cc21` [Example 26, 3-[(4R)-4-methyl-2-(1-methylpyrazolo[3,4-b]pyridin-4-yl)-3,4-dihydro-1H-isoquinolin-6-yl]-1-oxa-3,8-diazaspiro[4.5]decan-2-one], the IC50 was 7 nM.

Take `C[C@H]1CN(c2ccnc3c2cnn3C)Cc2ccc(N3C4CCC3CNC4)cc21` [Example 27, (4R)-6-(3,8-diazabicyclo[3.2.1]octan-8-yl)-4-methyl-2-(1-methylpyrazolo[3,4-b]pyridin-4-yl)-3,4-dihydro-1H-isoquinoline]: the IC50 was 4 nM.

Regarding `C[C@H]1CN(c2ccnc3c2cnn3C)Cc2ccc(N3CCC(N4CC(N)C4)CC3)cc21` [Example 28, 1-[1-[(4R)-4-methyl-2-(1-methylpyrazolo[3,4-b]pyridin-4-yl)-3,4-dihydro-1H-isoquinolin-6-yl]-4-piperidyl]azetidin-3-amine], the IC50 was found to be 4 nM.

Consider `C[C@H]1CN(c2ccnc3c2cnn3C)Cc2ccc(N3CCC(N4CC[C@@H](N)[C@H](O)C4)CC3)cc21` [Example 29, trans-4-amino-1-[1-[(4R)-4-methyl-2-(1-methylpyrazolo[3,4-b]pyridin-4-yl)-3,4-dihydro-1H-isoquinolin-6-yl]-4-piperidyl]piperidin-3-ol], for which the IC50 was 9 nM.

`Cc1cc(N2Cc3ccc(OC[C@H]4CNCCN4)cc3[C@@H](C)C2)c2cnn(C)c2n1` [Example 30, (4R)-2-(1,6-dimethylpyrazolo[3,4-b]pyridin-4-yl)-4-methyl-6-[[(2R)-piperazin-2-yl]methoxy]-3,4-dihydro-1H-isoquinoline]: the IC50 is 37 nM.

Consider `Cc1cc(N2Cc3ccc(OC[C@@H]4CNCCN4)cc3[C@@H](C)C2)c2cnn(C)c2n1` [Example 31, (4R)-2-(1,6-dimethylpyrazolo[3,4-b]pyridin-4-yl)-4-methyl-6-[[(2S)-piperazin-2-yl]methoxy]-3,4-dihydro-1H-isoquinoline], for which the IC50 was found to be 24 nM.

As for `C[C@H]1CN(c2ccnc3c2cnn3C)Cc2ccc(N3CCN(S(=O)(=O)C4CCNC4)CC3)cc21` (stereo partly drawn) [Example 33, (4R)-4-methyl-2-(1-methylpyrazolo[3,4-b]pyridin-4-yl)-6-(4-pyrrolidin-3-ylsulfonylpiperazin-1-yl)-3,4-dihydro-1H-isoquinoline], the IC50 was 6 nM.

Consider `C[C@H]1CN(c2ccnc3c2cnn3C)Cc2ccc(N3CC4(CNC4)CC3=O)cc21` [Example 34, 6-[(4R)-4-methyl-2-(1-methylpyrazolo[3,4-b]pyridin-4-yl)-3,4-dihydro-1H-isoquinolin-6-yl]-2,6-diazaspiro[3.4]octan-7-one], for which the IC50 is 26 nM.

Turning to `C[C@H]1CN(c2ccnc3c2cnn3C)Cc2ccc(N3CC4(CCNC4)OC3=O)cc21` (stereo partly drawn) [Example 35, 3-[(4R)-4-methyl-2-(1-methylpyrazolo[3,4-b]pyridin-4-yl)-3,4-dihydro-1H-isoquinolin-6-yl]-1-oxa-3,7-diazaspiro[4.4]nonan-2-one], the IC50 came out at 24 nM.

On to `C[C@H]1CN(c2ccnc3c2cnn3C)Cc2ccc(N3CCN(Cc4cn(C)cn4)CC3)cc21` [Example 37, (4R)-4-methyl-6-[4-[(1-methylimidazol-4-yl)methyl]piperazin-1-yl]-2-(1-methylpyrazolo[3,4-b]pyridin-4-yl)-3,4-dihydro-1H-isoquinoline], for which the IC50 was determined as 14 nM.

With `C[C@H]1CN(c2ccnc3c2cnn3C)Cc2ccc(N3CCN(CCN(C)C)CC3)cc21` [Example 38, N,N-dimethyl-2-[4-[(4R)-4-methyl-2-(1-methylpyrazolo[3,4-b]pyridin-4-yl)-3,4-dihydro-1H-isoquinolin-6-yl]piperazin-1-yl]ethanamine], the IC50 was determined as 3 nM.

For the compound `C[C@H]1CN(c2ccnc3c2cnn3C)Cc2ccc(OCCN3CCNCC3)cc21` [Example 40, (4R)-4-methyl-2-(1-methylpyrazolo[3,4-b]pyridin-4-yl)-6-(2-piperazin-1-ylethoxy)-3,4-dihydro-1H-isoquinoline], the IC50 was 8 nM.

Turning to `C[C@H]1CN(c2ccnc3c2cnn3C)Cc2ccc(OC3CN(C4CCNCC4)C3)cc21` [Example 41, (4R)-4-methyl-2-(1-methylpyrazolo[3,4-b]pyridin-4-yl)-6-[1-(4-piperidyl)azetidin-3-yl]oxy-3,4-dihydro-1H-isoquinoline], the IC50 is 7 nM.

As to `C[C@H]1CN(c2ccnc3c2cnn3C)Cc2ccc(O[C@@H]3C[C@H]4CNCCN4C3)cc21` [Example 42, (4R)-4-methyl-2-(1-methylpyrazolo[3,4-b]pyridin-4-yl)-6-[[(7R,8aS)-1,2,3,4,6,7,8,8a-octahydropyrrolo[1,2-a]pyrazin-7-yl]oxy]-3,4-dihydro-1H-isoquinoline], the IC50 amounted to 3 nM.
